Measured values from paper PMC11931604 (Drug Development Research, 2025).
Entries after “also recorded” stand apart in the source; their conditions may differ. Like-named read-outs stand apart in the source and are kept apart here.

Assays:
A/H3N2 (A/HK/7/87) = assay: microbe, parasite or virus in culture; assay type: cell-based, influenza A virus; conditions: for EC50: Influenza A virus, H3N2, MDCK; for anti-A/H3N2 activity (in words): MDCK cells
[1] = system: A/H1N1 (strain A/Ned/378/05); assay: CPE reduction assay in MDCK cells, influenza A/H1N1; assay type: cell-based; conditions: Influenza A virus
IBV (B/Ned/537/05) = assay: CPE reduction assay in MDCK cells, influenza B virus; assay type: cell-based
in vitro = conditions: dog
[2] = read-out: Antiviral EC50 A/H3N2 CPE
[3] = read-out: Antiviral EC50 A/H3N2 MTS
[4] = read-out: Antiviral EC50 A/H1N1 CPE
[5] = read-out: Antiviral EC50 A/H1N1 MTS
[6] = read-out: Antiviral EC50 IBV CPE
[7] = read-out: Antiviral EC50 IBV MTS

| SMILES | EC50 (A/H3N2 (A/HK/7/87); [2]) | EC50 (A/H3N2 (A/HK/7/87); [3]) | EC50 [1, 4] | EC50 [1, 5] | EC50 (IBV (B/Ned/537/05); [6]) | EC50 (IBV (B/Ned/537/05); [7]) | CC50 (in vitro) | anti-A/H3N2 activity (in words) (A/H3N2 (A/HK/7/87)) |
| --- | --- | --- | --- | --- | --- | --- | --- | --- |
| CC(C)(C)c1ccc(C(=O)NN2C(=O)CSC23CCCCC3)cc1 [Compound 1a, 4‐(tert‐Butyl)‐N‐(3‐oxo‐1‐thia‐4‐azaspiro[4.5]decan‐4‐yl)benzamide] | > 100 µM | > 100 µM | > 100 µM | > 100 µM | > 100 µM | > 100 µM | > 100 µM |  |
| CC1CCCC2(C1)SCC(=O)N2NC(=O)c1ccc(C(C)(C)C)cc1 (stereo not drawn) [Compound 1b, 4‐(tert‐Butyl)‐N‐(7‐methyl‐3‐oxo‐1‐thia‐4‐azaspiro[4.5]decan‐4‐yl)benzamide] | > 100 µM | > 100 µM | > 100 µM | > 100 µM | > 100 µM | > 100 µM | 11 µM |  |
| CC1CCC2(CC1)SCC(=O)N2NC(=O)c1ccc(C(C)(C)C)cc1 (stereo not drawn) [Compound 1c, 4‐(tert‐Butyl)‐N‐(8‐methyl‐3‐oxo‐1‐thia‐4‐azaspiro[4.5]decan‐4‐yl)benzamide] | > 100 µM | > 100 µM | > 100 µM | > 100 µM | > 100 µM | > 100 µM | > 100 µM | inactive; also recorded: lacks anti‐A/H3N2 activity |
| CCC1CCC2(CC1)SCC(=O)N2NC(=O)c1ccc(C(C)(C)C)cc1 (stereo not drawn) [Compound 1d, 4‐(tert‐Butyl)‐N‐(8‐ethyl‐3‐oxo‐1‐thia‐4‐azaspiro[4.5]decan‐4‐yl)benzamide] | > 100 µM | > 100 µM | > 100 µM | > 100 µM | > 100 µM | > 100 µM | > 100 µM |  |
| CCCC1CCC2(CC1)SCC(=O)N2NC(=O)c1ccc(C(C)(C)C)cc1 (stereo not drawn) [Compound 1e, 4‐(tert‐Butyl)‐N‐(3‐oxo‐8‐propyl‐1‐thia‐4‐azaspiro[4.5]decan‐4‐yl)benzamide] | > 100 µM | > 100 µM | > 100 µM | > 100 µM | > 100 µM | > 100 µM | > 100 µM |  |
| CC(C)(C)c1ccc(C(=O)NN2C(=O)CSC23CCC(C(C)(C)C)CC3)cc1 (stereo not drawn) [Compound 1f, 4‐(tert‐Butyl)‐N‐(8‐(tert‐butyl)‐3‐oxo‐1‐thia‐4‐azaspiro[4.5]decan‐4‐yl)benzamide] | > 100 µM | > 100 µM | > 100 µM | > 100 µM | > 100 µM | > 100 µM | > 100 µM |  |
| CC1SC2(CCCCC2)N(NC(=O)c2ccc(C(C)(C)C)cc2)C1=O (stereo not drawn) [Compound 2a, 4‐(tert‐Butyl)‐N‐(2‐methyl‐3‐oxo‐1‐thia‐4‐azaspiro[4.5]decan‐4‐yl)benzamide] | > 100 µM | > 100 µM | > 100 µM | > 100 µM | > 100 µM | > 100 µM | 92 µM | devoid of antiviral activity |
| CC1CCCC2(C1)SC(C)C(=O)N2NC(=O)c1ccc(C(C)(C)C)cc1 (stereo not drawn) [Compound 2b, 4‐(tert‐Butyl)‐N‐(2,7‐dimethyl‐3‐oxo‐1‐thia‐4‐azaspiro[4.5]decan‐4‐yl)benzamide] | > 100 µM | > 100 µM | > 100 µM | > 100 µM | > 100 µM | > 100 µM | 78 µM | devoid of antiviral activity |
| CC1CCC2(CC1)SC(C)C(=O)N2NC(=O)c1ccc(C(C)(C)C)cc1 (stereo not drawn) [Compound 2c, 4‐(tert‐Butyl)‐N‐(2,8‐dimethyl‐3‐oxo‐1‐thia‐4‐azaspiro[4.5]decan‐4‐yl)benzamide] | 2.4 ± 0.8 µM | 1.3 ± 0.3 µM | > 100 µM | > 100 µM | > 100 µM | > 100 µM | 39 ± 25 µM |  |
| CCC1CCC2(CC1)SC(C)C(=O)N2NC(=O)c1ccc(C(C)(C)C)cc1 (stereo not drawn) [Compound 2d, 4‐(tert‐Butyl)‐N‐(8‐ethyl‐2‐methyl‐3‐oxo‐1‐thia‐4‐azaspiro[4.5]decan‐4‐yl)benzamide] | > 100 µM | > 100 µM | > 100 µM | > 100 µM | > 100 µM | > 100 µM | 13 µM |  |
| CCCC1CCC2(CC1)SC(C)C(=O)N2NC(=O)c1ccc(C(C)(C)C)cc1 (stereo not drawn) [Compound 2e, 4‐(tert‐Butyl)‐N‐(2‐methyl‐3‐oxo‐8‐propyl‐1‐thia‐4‐azaspiro[4.5]decan‐4‐yl)benzamide] | > 100 µM | > 100 µM | > 100 µM | > 100 µM | > 100 µM | > 100 µM | 14 µM |  |
| CC1SC2(CCC(C(C)(C)C)CC2)N(NC(=O)c2ccc(C(C)(C)C)cc2)C1=O (stereo not drawn) [Compound 2f, 4‐(tert‐Butyl)‐N‐(8‐(tert‐butyl)‐2‐methyl‐3‐oxo‐1‐thia‐4‐azaspiro[4.5]decan‐4‐yl)benzamide] | > 100 µM | > 100 µM | > 100 µM | > 100 µM | > 100 µM | > 100 µM | > 100 µM |  |
| CCC(CC)O[C@@H]1C=C(C(=O)O)C[C@H](N)[C@H]1NC(C)=O [Oseltamivir carboxylate, reference compound] | 0.8 µM | 0.4 µM | 0.5 µM | 0.4 µM | 0.8 µM | 0.6 µM | > 100 µM |  |
| NC(=O)c1ncn([C@@H]2O[C@H](CO)[C@@H](O)[C@H]2O)n1 [Ribavirin, reference compound] | 6.8 µM | 1.3 µM | 8.9 µM | 7.1 µM | 9 µM | 5.3 µM | > 100 µM |  |
| CC(N)C12CC3CC(CC(C3)C1)C2 (stereo not drawn) [Rimantadine, reference compound] | 0.7 µM | 0.8 µM | 8 µM | 8.7 µM | > 200 µM | > 200 µM | > 200 µM |  |
